Results taken from US8795632B2, “Disease animal model for chronic pain” (Astellas Pharma Inc., priority 2008, dated 2014).

System: Sprague-Dawley rats
Assay: Muscle pressure pain threshold value after reserpine single administration
Format: in vivo, rat
Conditions: reserpine 3 mg/kg single s.c.
Protocol: Male Sprague-Dawley rats (Japan SLC, Hamamatsu, Japan) were used. Measurement of muscle pressure pain threshold value was carried out in the same manner as in Example 1. That is, a pressure stimulus of gradually increasing to 250 g at the maximum was added to the right hind leg gastrocnemius muscle of each rat. […] The measurement was carried out 3 times at each point of time of the measurement, and the average was used as the measurement value.
Influences of the reserpine single administration upon the muscle pressure pain threshold value, skin pain sensation threshold value, cold sensitivity and heat sensitivity were examined in accordance with the following protocol. […] The muscle pressure pain threshold value, skin pain sensation threshold value, cold sensitivity and heat sensitivity before the reserpine treatment (base lines) were measured and then they were divided into a solvent (0.5% acetic acid aqueous solution) group and a reserpine (3 mg/kg) group (the number of animals per group was 6). […] The muscle pressure pain threshold value, skin pain sensation threshold value, cold sensitivity and heat sensitivity of each rat were measured at the points of measurement time of acute phase after administration of the solvent or reserpine (2, 4, 8 and 24 hours) and chronic phase (2, 3, 5, 7, 10, 14 and 21 days).
All of the measured values were expressed as average value±standard error. […]

Which results are given for `COC(=O)[C@H]1[C@H]2C[C@@H]3c4[nH]c5cc(OC)ccc5c4CCN3C[C@H]2C[C@@H](OC(=O)c2cc(OC)c(OC)c(OC)c2)[C@@H]1OC` [reserpine]?
muscle pressure pain threshold value (after 2, 3, 5, 7 and 10 days): significantly reduced; muscle pressure pain threshold value (after 2, 4, 8 and 24 hours): significantly increased
